From publication PMC2766259 (Synapse (New York, N.Y.), 2009)
Read-outs that look alike come from different tables or passages of the source.

How the values were obtained:
[1] = tested on: α4β2* nAChRs; conditions: pigs, CI; ref Brust et al., 2008; cited from earlier work
[2] = tested on: α4β2* nAChRs; conditions: cited from earlier work
[3] = tested on: α4β2* nAChRs; conditions: cited from earlier work; remark: listed apart in the source
[4] = tested on: α4β2* nAChRs; conditions: cited from earlier work; remark: listed apart in the source
[5] = tested on: α4β2* nAChRs; conditions: human smokers, 2-[^18F]FA; ref Brody et al., 2006; cited from earlier work
[6] = tested on: α4β2* nAChRs; conditions: acute treatment, baboon, ref Kassiou et al., 2001, cited from earlier work
[7] = tested on: α4β2* nAChRs; conditions: in rats; ref Saji et al., 2002; cited from earlier work
[8] = tested on: α4β2* nAChRs; conditions: ref Saji et al., 2002; cited from earlier work
[9] = Plasma metabolite analysis by column-switch HPLC after intravenous 5-[^123I]IA; type: in vivo, Humans (Homo sapiens); conditions: drawn simultaneously 30 minutes or later after administration
[10] = target: high-affinity α4β2* neuronal nicotinic acetylcholine receptors (nAChRs) (Homo sapiens, UniProt P17787+P43681); experiment: 5-[^123I]IA SPECT of the living human brain, VOI kinetic analysis; type: in vivo, Humans (Homo sapiens)
Sequence of high-affinity α4β2* neuronal nicotinic acetylcholine receptors (nAChRs) (P43681 29-627 limits assumed): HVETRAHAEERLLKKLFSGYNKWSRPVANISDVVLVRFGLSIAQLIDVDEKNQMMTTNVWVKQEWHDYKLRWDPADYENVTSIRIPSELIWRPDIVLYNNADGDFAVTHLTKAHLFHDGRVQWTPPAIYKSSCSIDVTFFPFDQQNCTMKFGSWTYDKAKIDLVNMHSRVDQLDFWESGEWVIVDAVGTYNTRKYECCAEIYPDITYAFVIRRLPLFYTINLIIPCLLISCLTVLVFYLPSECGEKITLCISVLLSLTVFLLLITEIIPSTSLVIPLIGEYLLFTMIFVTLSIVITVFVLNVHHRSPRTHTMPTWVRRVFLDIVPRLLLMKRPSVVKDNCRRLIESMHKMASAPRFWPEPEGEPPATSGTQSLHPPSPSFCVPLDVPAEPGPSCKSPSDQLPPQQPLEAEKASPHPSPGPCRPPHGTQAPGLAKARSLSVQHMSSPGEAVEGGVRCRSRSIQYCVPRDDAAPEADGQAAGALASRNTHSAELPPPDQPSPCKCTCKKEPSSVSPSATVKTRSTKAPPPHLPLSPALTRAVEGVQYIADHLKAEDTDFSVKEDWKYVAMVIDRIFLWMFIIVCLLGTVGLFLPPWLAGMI
Sequence of high-affinity α4β2* neuronal nicotinic acetylcholine receptors (nAChRs) (P17787 26-502): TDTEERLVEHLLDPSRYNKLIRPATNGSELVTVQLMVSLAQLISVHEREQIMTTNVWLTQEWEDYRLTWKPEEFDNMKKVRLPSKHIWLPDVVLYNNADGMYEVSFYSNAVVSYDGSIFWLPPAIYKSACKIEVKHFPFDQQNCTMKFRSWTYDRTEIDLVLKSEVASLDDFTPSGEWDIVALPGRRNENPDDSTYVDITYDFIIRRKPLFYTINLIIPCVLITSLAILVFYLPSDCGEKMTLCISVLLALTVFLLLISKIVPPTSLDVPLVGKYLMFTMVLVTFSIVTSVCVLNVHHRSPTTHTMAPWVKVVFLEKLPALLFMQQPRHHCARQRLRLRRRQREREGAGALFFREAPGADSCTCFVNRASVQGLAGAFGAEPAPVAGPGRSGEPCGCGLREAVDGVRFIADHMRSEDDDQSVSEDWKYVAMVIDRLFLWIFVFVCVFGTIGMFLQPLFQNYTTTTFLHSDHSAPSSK

[11] = as above; type: in vivo, Humans (Homo sapiens); conditions: human, intravenous
[12] = Safety and tolerability monitoring after intravenous 5-[^123I]IA; type: in vivo, Humans (Homo sapiens)
[13] = tested on: α4β2* nAChRs; conditions: in rats; ref Saji et al., 2002; cited from earlier work; remark: listed apart in the source

[18F]c1ccc([C@@H]2C[C@H]3CCC[C@@H]2N3)cn1 [(−)-[^18F]NCFHEB, [^18F]norchloro-fluoro-homoepibatidine]
Conclusion: attainment of equilibrium [1]: • (−)-[^18F]NCFHEB attains equilibrium before 2-[^18F]FA

[11CH3]N1CCC[C@H]1c1cccnc1 [[^11C](S)-(−)-nicotine, reference compound]
non-specific binding ([2]; human nAChR imaging, ref Scheffel et al., 2000, Villemagne et al., 1998): high degree of non-specific binding

[18F]c1ccc(OC[C@@H]2CCN2)cn1 [6-[^18F]FA, 6-[^18F]fluoro-3-(2(S)-azetidinylmethoxy)pyridine]
Conclusion: safety and efficacy ([3]; ref Horti et al., 2000): • 6-[^18F]FA is safe and efficacious for brain imaging in monkeys.

[18F]c1cc(-c2cc(OC[C@@H]3CCN3)cnc2Cl)ccn1 [[^18F]NIDA522131, chloro-3-((2-(S)-azetidinyl)methoxy)-5-(2-[^18F]fluoropyridin-4-yl)pyridine]
Conclusion: safety and efficacy ([3]; ref Chefer et al., 2008): • [^18 F]NIDA522131 is safe and efficacious for brain imaging in monkeys.

[18F]c1ncccc1OC[C@@H]1CCN1 [2-[^18F]FA, 2-[^18F]fluoro-3-(2(S)-azetidinylmethoxy)pyridine, reference compound]
Conclusion: peaks ([4]; in vivo): • In baboons 2-[^18F]FA has lower peaks than [^18F]fluoronorchloroepibatidine. In a monkey 2-[^18F]FA has lower peaks than 5-[^123I]IA. | Conclusion: safety and efficacy ([3]; 2 monkeys, ref Kimes et al., 2003): • 2-[^18F]FA is safe and efficacious in monkeys and humans. | Conclusion: peaks ([3]; a monkey, ref Dollé et al., 1999): • In baboons 2-[^18F]FA has lower peaks than [^18F]fluoronorchloroepibatidine. In a monkey 2-[^18F]FA has lower peaks than 5-[^123I]IA. | Conclusion: safety and efficacy ([3]; ref Chefer et al., 1999): • 2-[^18F]FA is safe and efficacious for brain imaging in monkeys.

CN1CCC[C@H]1c1cccnc1 [(−)-nicotine]
plasma nicotine level at uptake of half the α4β2* nAChRs [5]: 0.87 ng/mL | reduction in α4β2* nAChR uptake ([6]; frontal cortex): 32% | reduction in α4β2* nAChR uptake ([6]; thalamus): 52% | effect on accumulation of 5-[^123I]IA in brain [7]: blocked in all brain regions

[76Br]c1ccc(C2CC3CCC2N3)cn1 (stereo not drawn) [[^76Br]BrPH, [^76Br]norchlorobromoepibatidine, reference compound]
Conclusion: safety and efficacy ([4]; ref Kassiou et al., 2002): [^76Br]BrPH is safe and efficacious in baboons.

[123I]c1cncc(OC[C@@H]2CCN2)c1 [5-[^123I]IA, (S)-5-[^123I]iodo-3-(2-azetidinylmethoxy)pyridine]
Conclusion: metabolism and plasma protein binding by sex ([2]; 29 nonsmokers, ref Cosgrove et al., 2007): greater in women than in men | Conclusion: safety and efficacy ([2]; ref Fujita et al., 2002): • 5-[^123I]IA is safe, efficacious in humans. | Conclusion: safety and efficacy ([2]; ref Ishizu et al., 2004): • 5-[^123I]IA is safe, efficacious in humans. | Conclusion: safety and efficacy ([2]; ref Mamede et al., 2004): • 5-[^123I]IA is safe, efficacious in humans. | Conclusion: safety and efficacy ([2]; ref Staley et al., 2005): • 5-[^123I]IA is safe, efficacious in humans. | Conclusion: safety and efficacy ([2]; ref Ueda et al., 2004): • 5-[^123I]IA is safe, efficacious in humans. | Conclusion: safety and efficacy [8]: • 5-[^123I]IA is safe, efficacious in a marmoset. | extent of metabolism, arterial versus venous blood samples [9]: identical extents of metabolism | Conclusion: regional uptake ([4]; baboon, ref Baldwin et al., 2006): • Uptake high in thalamus, moderate in cortex and basal ganglia, low in cerebellum. SPECT brain radioactivity represents5-[^123I]IA distribution | Conclusion: safety and efficacy ([4]; ref Fujita et al., 2000): 5-[^123I]IA is safe, efficacious in baboons. | Conclusion: safety and efficacy ([3]; ref Chefer et al., 1998): 5-[^123 I]IA is safe and efficacious for brain imaging in monkeys. | time of maximal cerebellar uptake ([10]; after injection): 40 min | time of peak thalamic uptake ([10]; after injection): approximately 140 minutes | brain uptake ([10]; living human brain): good brain uptake | reversibility of binding ([10]; time activity curves): reversible binding with substantial dissociation by 6 h | Kp ([11]; brain (cortex), 8.1 mCi, Distribution volume (DV), Cortex, subject 1, bolus): 12.8 | Kp ([11]; brain (cortex), 8.8 mCi, Distribution volume (DV), Cortex, subject 4, bolus): 7.62 | Kp ([11]; brain (cortex), 9.3 mCi, Distribution volume (DV), Cortex, subject 3, bolus): 13 | Kp ([11]; brain (frontal lobe), 8.1 mCi, Distribution volume (DV), Frontal lobe, subject 1, bolus): 9.6 | Kp ([11]; brain (frontal lobe), 8.8 mCi, Distribution volume (DV), Frontal lobe, subject 4, bolus): 5.46 | Kp ([11]; brain (frontal lobe), 9.3 mCi, Distribution volume (DV), Frontal lobe, subject 3, bolus): 8.56 | Kp ([11]; brain (fusiform gyrus), 8.1 mCi, Distribution volume (DV), Fusiform gyrus, subject 1, bolus): 9.34 | Kp ([11]; brain (fusiform gyrus), 8.8 mCi, Distribution volume (DV), Fusiform gyrus, subject 4, bolus): 5.68 | Kp ([11]; brain (fusiform gyrus), 9.3 mCi, Distribution volume (DV), Fusiform gyrus, subject 3, bolus): 9.58 | Kp ([11]; brain (hippocampus), 8.1 mCi, Distribution volume (DV), Hippocampus, subject 1, bolus): 13.5 | Kp ([11]; caudate head, Median DV of high plasma nicotine group, Caudate head, six volunteers): 13.7 | Kp ([11]; caudate head, Median DV of low plasma nicotine group, Caudate head, six volunteers): 21.9 | Kp ([11]; cerebellum, 8.1 mCi, Distribution volume (DV), subject 1, bolus): 8.71 | Kp ([11]; cerebellum, 8.8 mCi, Distribution volume (DV), subject 4, bolus): 5.4 | Kp ([11]; cerebellum, 9.3 mCi, Distribution volume (DV), subject 3, bolus): 9.88 | Kp ([11]; cingulate cortex, Median DV of high plasma nicotine group, Cingulate cortex, six volunteers): 12.6 | Kp ([11]; cingulate cortex, Median DV of low plasma nicotine group, Cingulate cortex, six volunteers): 21.4 | Kp ([11]; cingulate gyrus, 8.1 mCi, Distribution volume (DV), subject 1, bolus): 12.6 | Kp ([11]; cingulate gyrus, 8.8 mCi, Distribution volume (DV), subject 4, bolus): 7.55 | Kp ([11]; cingulate gyrus, 9.3 mCi, Distribution volume (DV), subject 3, bolus): 12.4 | Kp ([11]; frontal cortex, Median DV of high plasma nicotine group, Frontal cortex, six volunteers): 9.6 | Kp ([11]; frontal cortex, Median DV of low plasma nicotine group, Frontal cortex, six volunteers): 18 | Kp ([11]; fusiform gyrus, Median DV of high plasma nicotine group, Fusiform gyrus, six volunteers): 9.46 | Kp ([11]; fusiform gyrus, Median DV of low plasma nicotine group, Fusiform gyrus, six volunteers): 19.9 | Kp ([11]; head of the caudate nucleus, 8.1 mCi, Distribution volume (DV), Caudate head, subject 1, bolus): 13.7 | Kp ([11]; head of the caudate nucleus, 8.8 mCi, Distribution volume (DV), Caudate head, subject 4, bolus): 7.75 | Kp ([11]; head of the caudate nucleus, 9.3 mCi, Distribution volume (DV), Caudate head, subject 3, bolus): 13.1 | Kp ([11]; hippocampus, 8.8 mCi, Distribution volume (DV), subject 4, bolus): 8.32 | Kp ([11]; hippocampus, 9.3 mCi, Distribution volume (DV), subject 3, bolus): 14.4 | Kp ([11]; occipital cortex, Median DV of high plasma nicotine group, Occiptal cortex, six volunteers): 7.15 | Kp ([11]; occipital cortex, Median DV of low plasma nicotine group, Occiptal cortex, six volunteers): 14.2 | Kp ([11]; occipital lobe, 8.1 mCi, Distribution volume (DV), Occiptal lobe, subject 1, bolus): 7 | Kp ([11]; occipital lobe, 8.8 mCi, Distribution volume (DV), Occiptal lobe, subject 4, bolus): 4.17 | Kp ([11]; occipital lobe, 9.3 mCi, Distribution volume (DV), Occiptal lobe, subject 3, bolus): 7.15 | Kp ([11]; parietal cortex, Median DV of high plasma nicotine group, Parietal cortex, six volunteers): 9.78 | Kp ([11]; parietal cortex, Median DV of low plasma nicotine group, Parietal cortex, six volunteers): 17 | Kp ([11]; parietal lobe, 8.1 mCi, Distribution volume (DV), subject 1, bolus): 9.78 | Kp ([11]; parietal lobe, 8.8 mCi, Distribution volume (DV), subject 4, bolus): 5.17 | Kp ([11]; parietal lobe, 9.3 mCi, Distribution volume (DV), subject 3, bolus): 8.71 | Kp ([11]; pons, 8.1 mCi, Distribution volume (DV), subject 1, bolus): 15.1 | Kp ([11]; pons, 8.8 mCi, Distribution volume (DV), subject 4, bolus): 9.23 | Kp ([11]; pons, 9.3 mCi, Distribution volume (DV), subject 3, bolus): 20.4 | Kp ([11]; putamen, 8.8 mCi, Distribution volume (DV), subject 4, bolus): 8.74 | Kp ([11]; putamen, 9.3 mCi, Distribution volume (DV), subject 3, bolus): 15.6 | Kp ([11]; temporal cortex, Median DV of high plasma nicotine group, Temporal cortex, six volunteers): 8.39 | Kp ([11]; temporal cortex, Median DV of low plasma nicotine group, Temporal cortex, six volunteers): 15 | vital signs and electrocardiograms ([12]; before administration and subsequent 24 hours): normal | abnormalities of behavior or movement (AIMS, BPRS) ([12]; before or after administration): no abnormalities of behavior or movement | Electrocardiogram, blood pressure, and pulse ([12]; during each study, twelve healthy adults): did not change | Conclusion: safety and efficacy ([12]; humans, smokers, nonsmokers, secondhand smoke exposure, current study): • 5-[^123I]IA is safe, efficacious in humans (smokers, nonsmokers, people with secondhand smoke exposure | binding affinity relative to (−)-nicotine [13]: seven times greater | binding affinity relative to A-85380 [13]: comparable to A-85380 | regional brain uptake [7]: high uptake in the thalamus, moderate uptake in the cortex, and low uptake in the cerebellum
